Source: US9889113B2, “Method for reversing, preventing, delaying or stabilizing soft tissue calcification” (Panion & BF Biotech, Inc., priority 2006, dated 2018)

Legend:
Assay type in all cases: in vivo, human
[1] = tested on: patients with end stage renal disease (ESRD); experiment: Treatment-emergent adverse events in the dose-ranging study
Description: (§1) Objectives: (1) To determine the effect of ferric citrate at doses of 2, 4 and 6 g daily, administered TID (three times a day), for 28 days on serum phosphate (PO4) levels in patients with end stage renal disease (ESRD). (2) To evaluate the safety of ferric citrate at doses of 2, 4, 6 g daily, administered TID, for 28 days in patients with ESRD.
(§2) Study Design: Randomized, double-blind, placebo-controlled, dose-ranging study to assess the effect of ferric citrate on serum phosphate concentrations in patients with ESRD on hemodialysis. Patients are assessed at Study Days 14 and 28 for effectiveness as measured by serum phosphate concentrations. Patients who received one or more doses of study medication are also assessed for safety.

[2] = tested on: patients with end stage renal disease (ESRD) on hemodialysis; experiment: Randomized, double-blind, placebo-controlled, dose-ranging study of ferric citrate on serum phosphate, Ca and Ca×PO4; settings: Day 28; 2, 4, 6 g/day TID vs placebo
[3] = tested on: patients with end stage renal disease (ESRD) on hemodialysis; experiment: as above; settings: for Serum [Ca] (mg/dL) at Day 0 / Serum [PO4] (mg/dL) at Day 0 / [Ca] * [PO4] (mg/dL)^2 at Day 0: Day 0 baseline; for Serum Ca (mg/dL): Linear Regression: N.S.: Not Significant
Description: as §1, §2
Study Duration: 8 weeks (including the screening period, 2 weeks washout, 4 weeks treatment)
Ferric citrate is administered orally, and is given equally three times a day.

[4] = 0, 2, 4 and 6 gm/day, TID immediately after meals
[5] = 6 g/day (N = 32), Day 28, *P < 0.05 baseline change vs placebo
[6] = Day 14, 2, 4, 6 g/day TID vs placebo
[7] = Day 28, 2, 4, 6 g/day TID vs placebo

Q: For `O=C([O-])CC(O)(CC(=O)[O-])C(=O)[O-].[Fe+3]` [ferric citrate], which “GI Disorder, Probably (relationship): (%)” value ([1]; 6 g/day (N = 33)) is on record?
A: The value was “(15.2) %”.

Q: And the “GI Disorders (System Organ Class): # Event” value ([1]; 6 g/day (N = 33))?
A: Its value is 10.

Q: And the “GI Disorders (System Organ Class): (%)” value ([1]; 6 g/day (N = 33))?
A: The value was “(30.3) %”.

Q: And the “GI Disorders, Mild (severity): # Event” value ([1]; 6 g/day (N = 33))?
A: The value was 9.

Q: And the “GI Disorders, Mild (severity): (%)” value ([1]; 6 g/day (N = 33))?
A: Its value is “(27.3) %”.

Q: What about the “General Disorders (System Organ Class): # Event” value ([1]; 6 g/day (N = 33)) of the same molecule?
A: The value was 4.

Q: And the “General Disorders (System Organ Class): (%)” value ([1]; 6 g/day (N = 33))?
A: Its value is “(12.1) %”.

Q: And the “Infections and Infestations (System Organ Class): # Event” value ([1]; 6 g/day (N = 33))?
A: Its value is 1.

Q: And the “Infections and Infestations (System Organ Class): (%)” value ([1]; 6 g/day (N = 33))?
A: The value was “(3.0) %”.

Q: What about the “Skin and SC Tissue Disorders (System Organ Class): # Event” value ([1]; 6 g/day (N = 33)) of the same molecule?
A: Its value is 4.

Q: What about the “Skin and SC Tissue Disorders (System Organ Class): (%)” value ([1]; 6 g/day (N = 33)) of the same molecule?
A: The value was “(12.1) %”.

Q: And the “T#at1AE, Definitely (relationship): # Event” value ([1]; 6 g/day (N = 33))?
A: Its value is 0.

Q: What about the “T#at1AE, Definitely (relationship): (%)” value ([1]; 6 g/day (N = 33)) of the same molecule?
A: Its value is “(0.0) %”.

Q: What about the “T#at1AE, Mild (severity): # Event” value ([1]; 6 g/day (N = 33)) of the same molecule?
A: The value was 14.

Q: What about the “T#at1AE, Mild (severity): (%)” value ([1]; 6 g/day (N = 33)) of the same molecule?
A: The value was “(42.4) %”.

Q: And the “T#at1AE, Moderate (severity): # Event” value ([1]; 6 g/day (N = 33))?
A: Its value is 2.

Q: And the “T#at1AE, Moderate (severity): (%)” value ([1]; 6 g/day (N = 33))?
A: The value was “(6.1) %”.

Q: What about the “T#at1AE, Possibly (relationship): # Event” value ([1]; 6 g/day (N = 33)) of the same molecule?
A: Its value is 2.

Q: And the “T#at1AE, Possibly (relationship): (%)” value ([1]; 6 g/day (N = 33))?
A: Its value is “(6.1) %”.

Q: What about the “T#at1AE, Probably (relationship): # Event” value ([1]; 6 g/day (N = 33)) of the same molecule?
A: Its value is 5.

Q: And the “T#at1AE, Probably (relationship): (%)” value ([1]; 6 g/day (N = 33))?
A: The value was “(15.2) %”.

Q: What about the “T#at1AE, Severe (severity): # Event” value ([1]; 6 g/day (N = 33)) of the same molecule?
A: Its value is 1.

Q: What about the “T#at1AE, Severe (severity): (%)” value ([1]; 6 g/day (N = 33)) of the same molecule?
A: The value was “(3.0) %”.

Q: And the “Total number of subjects with at least one adverse event (T#at1AE): # Event” value ([1]; 6 g/day (N = 33))?
A: Its value is 17.

Q: What about the “Total number of subjects with at least one adverse event (T#at1AE): (%)” value ([1]; 6 g/day (N = 33)) of the same molecule?
A: Its value is “(51.5) %”.

Q: And the side effect ([1]; Phase II study)?
A: Its side effect is “minimum side effect”.

Q: What about the “Ca × PO4 (mg/dL)^2: Linear Regression P” value [2] of the same molecule?
A: The value was “P = 0.0158”.

Q: What about the “Ca*PO4” value [3, 4] of the same molecule?
A: Its value is “decrease”.

Q: What about the “serum PO4” value [3, 4] of the same molecule?
A: Its value is “decrease”.

Q: What about the “Serum [Ca] (mg/dL) at Day 0” value ([3]; 2 g/day (N = 31)) of the same molecule?
A: The value was 8.78 mg/dL.

Q: What about the “Serum [PO4] (mg/dL) at Day 0” value ([3]; 2 g/day (N = 31)) of the same molecule?
A: Its value is 7.2 mg/dL.

Q: What about the “[Ca] * [PO4] (mg/dL)^2 at Day 0” value ([3]; 2 g/day (N = 31)) of the same molecule?
A: The value was 62.9 (mg/dL)^2.

Q: What about the “Serum [Ca] (mg/dL) at Day 14” value ([3]; 2 g/day (N = 31), Day 14) of the same molecule?
A: Its value is 9.01 mg/dL.

Q: What about the “Serum [PO4] (mg/dL) at Day 14” value ([3]; 2 g/day (N = 31), Day 14) of the same molecule?
A: The value was 6.7 mg/dL.

Q: And the “[Ca] * [PO4] (mg/dL)^2 at Day 14” value ([3]; 2 g/day (N = 31), Day 14)?
A: Its value is 60.3 (mg/dL)^2.

Q: And the “Serum [Ca] (mg/dL) at Day 28” value ([3]; 2 g/day (N = 31), Day 28)?
A: Its value is 9.00 mg/dL.

Q: And the “Serum [PO4] (mg/dL) at Day 28” value ([3]; 2 g/day (N = 31), Day 28)?
A: Its value is 6.9 mg/dL.

Q: And the “[Ca] * [PO4] (mg/dL)^2 at Day 28” value ([3]; 2 g/day (N = 31), Day 28)?
A: The value was 61.7 (mg/dL)^2.

Q: And the “Serum [Ca] (mg/dL) at Day 0” value ([3]; 4 g/day (N = 32))?
A: The value was 9.02 mg/dL.

Q: What about the “Serum [PO4] (mg/dL) at Day 0” value ([3]; 4 g/day (N = 32)) of the same molecule?
A: Its value is 7.1 mg/dL.

Q: What about the “[Ca] * [PO4] (mg/dL)^2 at Day 0” value ([3]; 4 g/day (N = 32)) of the same molecule?
A: Its value is 63.5 (mg/dL)^2.

Q: What about the “Serum [Ca] (mg/dL) at Day 14” value ([3]; 4 g/day (N = 32), Day 14) of the same molecule?
A: The value was 9.47 mg/dL.

Q: And the “Serum [PO4] (mg/dL) at Day 14” value ([3]; 4 g/day (N = 32), Day 14)?
A: Its value is 6.4 mg/dL.

Q: And the “[Ca] * [PO4] (mg/dL)^2 at Day 14” value ([3]; 4 g/day (N = 32), Day 14)?
A: The value was 59.9 (mg/dL)^2.

Q: And the “Serum [Ca] (mg/dL) at Day 28” value ([3]; 4 g/day (N = 32), Day 28)?
A: The value was 9.29 mg/dL.

Q: What about the “Serum [PO4] (mg/dL) at Day 28” value ([3]; 4 g/day (N = 32), Day 28) of the same molecule?
A: Its value is 6.0 mg/dL.

Q: And the “[Ca] * [PO4] (mg/dL)^2 at Day 28” value ([3]; 4 g/day (N = 32), Day 28)?
A: Its value is 55.4 (mg/dL)^2.

Q: What about the “Serum [Ca] (mg/dL) at Day 0” value ([3]; 6 g/day (N = 32)) of the same molecule?
A: Its value is 8.99 mg/dL.

Q: And the “Serum [PO4] (mg/dL) at Day 0” value ([3]; 6 g/day (N = 32))?
A: Its value is 7.3 mg/dL.

Q: And the “[Ca] * [PO4] (mg/dL)^2 at Day 0” value ([3]; 6 g/day (N = 32))?
A: Its value is 65.8 (mg/dL)^2.

Q: And the “Serum [Ca] (mg/dL) at Day 14” value ([3]; 6 g/day (N = 32), Day 14)?
A: The value was 9.13 mg/dL.

Q: What about the “Serum [PO4] (mg/dL) at Day 14” value ([3]; 6 g/day (N = 32), Day 14) of the same molecule?
A: The value was 6.3 mg/dL.

Q: And the “[Ca] * [PO4] (mg/dL)^2 at Day 14” value ([3]; 6 g/day (N = 32), Day 14)?
A: Its value is 57.5 (mg/dL)^2.

Q: And the “Serum [Ca] (mg/dL) at Day 28” value ([3]; 6 g/day (N = 32), Day 28)?
A: The value was 9.26 mg/dL.

Q: What about the “Serum [PO4] (mg/dL) at Day 28” value [3, 5] of the same molecule?
A: Its value is 5.8 mg/dL.

Q: What about the “[Ca] * [PO4] (mg/dL)^2 at Day 28” value [3, 5] of the same molecule?
A: Its value is 54.1 (mg/dL)^2.

Q: And the “Ca*P04 levels” value ([3]; 6 gm/day dose at both 14 and 28 days)?
A: Its value is “have decreased and were statistically significant”.

Q: And the “Serum Ca (mg/dL): Dose Response” value ([3]; Day 0)?
A: Its value is “No”.

Q: And the “Ca × PO4 (mg/dL)^2: Dose Response” value [3, 6]?
A: The value was “Yes”.

Q: And the “Ca × PO4 (mg/dL)^2: Linear Regression P” value [3, 6]?
A: Its value is “P = 0.0401”.

Q: And the “Ca × PO4 (mg/dL)^2: Statistical Significant” value [3, 6]?
A: Its value is “No”.

Q: And the “Serum Ca (mg/dL): Dose Response” value [3, 6]?
A: Its value is “No”.

Q: And the “Serum Ca (mg/dL): Statistical Significant” value [3, 6]?
A: The value was “No”.

Q: And the “Serum PO4 (mg/dL): Dose Response” value [3, 6]?
A: The value was “No”.

Q: What about the “Serum PO4 (mg/dL): Statistical Significant” value [3, 6] of the same molecule?
A: The value was “No”.

Q: What about the “Serum Ca (mg/dL): Linear Regression” value ([3]; Day 14) of the same molecule?
A: Its value is “N.S”.

Q: And the “Ca × PO4 (mg/dL)^2: Dose Response” value [3, 7]?
A: Its value is “Yes”.

Q: And the “Serum Ca (mg/dL): Dose Response” value [3, 7]?
A: Its value is “No”.

Q: And the “Serum Ca (mg/dL): Statistical Significant” value [3, 7]?
A: The value was “No”.

Q: And the “Serum PO4 (mg/dL): Dose Response” value [3, 7]?
A: The value was “Yes”.

Q: What about the “Serum PO4 (mg/dL): Linear Regression P” value [3, 7] of the same molecule?
A: The value was “P = 0.0073”.

Q: What about the “Serum PO4 (mg/dL): Statistical Significant” value [3, 7] of the same molecule?
A: The value was “Yes (6 g/day)”.

Q: And the “[Ca] * [PO4] (mg/dL)^2: Dose Response” value ([3]; Day 28, 2, 4, 6 g/day vs placebo)?
A: Its value is “Yes”.

Q: What about the “Serum Ca (mg/dL): Linear Regression” value ([3]; Day 28) of the same molecule?
A: The value was “N.S”.

Q: And the “Ca × PO4 (mg/dL)^2: Statistical Significant” value ([3]; Day 78, 2, 4, 6 g/day TID vs placebo)?
A: The value was “Yes (6 g/day)”.

Q: And the “serum Ca×P” value ([3]; Phase II study)?
A: Its value is “decrease serum Ca×P in a dose-dependent manner”.

Q: What about the “change in serum calcium level” value ([3]; during the 28 days, 2, 4, and 6 gm/day) of the same molecule?
A: The value was “No significant change”.

Q: And the “ability to lower serum phosphate levels” value ([3]; patients with ESRD)?
A: Its value is “demonstrated”.
